Experiments:
[1] = Critical micelle concentration (CMC) determination by UV-VIS; type: physicochemical; details: peptide in water, 1–200 µM; UV absorbance at 255 nm plotted against logarithm of peptide concentration, intersection point of two lines
Procedure: Peptide conjugates were dissolved in water and different concentrations (1–200 µM) were prepared. UV-VIS spectra ranging from 200–700 nm were recorded using a 1 cm path length quartz cuvette in a Spectroquant Pharo 300 photometer (Merck, Darmstadt, Germany). The absorbance at 255 nm was plotted against the logarithm of the peptide concentration. The intersection point of two lines was determined as CMC.
Since this effect was obviously dependent on the hydrophobic nature of the conjugates, we were then interested in whether they would also self-assemble and form nanostructures, such as micelles or fibrils. An easy to apply and fast method makes use of changes in spectroscopic properties associated with micelle formation. For this, one measures the UV absorbance at a specific wavelength as a function of the concentration. Because aggregates like micelles and free molecule species contribute to a different extent to the absorbed UV light, an abrupt change of the slope occurs above a certain point. The corresponding concentration is defined as the critical micelle concentration (CMC). We measured the UV-VIS spectra of all CB-sC18 conjugates and observed for all an additional concentration-dependent maximum at 255 nm (Figure 1A,B and Table 2), whereas this maximum was not detected for meta-carborane-1-carboxylic acid (Figure S14) or sC18 alone (Figure S15).
Thus, we hypothesized this maximum as evidence for a possible self-assembly, and by plotting the absorbance at 255 nm against the logarithm of the peptide concentration, we assigned the intersection point as CMC.

HeLa cells [2] = assay: Cellular uptake by flow cytometry; type: cell-based; details: 1 µM CF-labeled peptide, serum-free medium, 30 min, 37 °C, triplicate, n = 3
Procedure: HeLa cells were seeded onto 24-well plates (Sarstedt, Nümbrecht, Germany, 100,000 cells per well, respectively). After reaching 80–90% confluency, medium was removed, and cells were incubated with 1 µM CF-labeled peptide solution in serum-free medium for either 30 min or 2 h at 37 °C. The peptide solution was removed, cells were washed twice with PBS, and trypsinized for 5 min. Detached cells were resuspended in full medium (phenol red free) and afterwards analyzed using a guava easycyte HT flow cytometer (Merck, Darmstadt, Germany).

[3] = Circular dichroism spectroscopy (alpha-helical content, R-value); type: physicochemical; details: for % of alpha helix, 50% TFE / % of alpha helix, Phosphate Buffer: CD, calculated per ref 31; for % of alpha helix, 50% TFE: 20 µM peptide in 10 mM phosphate buffer (pH 7.0) with 50% TFE (v/v); for % of alpha helix, Phosphate Buffer / R-value, Phosphate Buffer: 20 µM peptide in 10 mM phosphate buffer (pH 7.0); for R-value, Phosphate Buffer / R-value, 50% TFE: ratio between the molar ellipticity values at 222 and 208 nm; for R-value, 50% TFE: 20 µM peptide in 10 mM phosphate buffer (pH 7.0) with 50% TFE
Procedure: Conjugates were dissolved in 10 mM phosphate buffer (pH 7.0), either alone or supplemented with 50% TFE (v/v), to a final concentration of 20 µM. CD spectra of all conjugates were recorded from 180–260 nm (0.5 nm intervals) on a J-715 spectropolarimeter (JASCO, Pfungstadt, Germany) in an N2 atmosphere.
To find out more, we performed CD spectroscopy for all peptides solved either in phosphate buffer or in phosphate buffer supplemented with trifluoroethanol (TFE), respectively. All conjugates and sC18 adopted an alpha-helix, when present in phosphate buffer with TFE (Figure S20). On the other hand, when CB-conjugates were solved in phosphate buffer only (Figure 1C), some of them directly formed distinct secondary structures. […] Taking this observation into account, we concluded that the number of CB moieties actually promoted the formation of alpha-helical structures. This effect might be further explained by the helical wheel projection of each conjugate showing that the hydrophobic face of the peptide was clearly enlarged when three or more CB units were attached (see Figure S21). […]

[4] = CF-leakage assay, negatively charged LUVs; details: 1 µM peptide, 25 °C, 90 min; fluorescence, normalized to Triton x-100; duplicate, n = 2
Procedure: (§1) Large unilamellar vesicles (LUVs) were prepared by dissolving different lipids in CHCl3, to reach the desired compositions (lipids were purchased from Avanti Polar Lipids, Inc., Alabaster, AL, USA). To remove the solvent, the mixture was placed into a round-bottomed flask on ice and the solvent was evaporated under reduced pressure for 20 min at 40 °C and afterwards under vacuum for another 5 min. The dried lipid film was then hydrated with HKS buffer (25 mM HEPES, 150 mM KCl, pH 7.4, 10% sucrose (w/v)), supplemented with 100 mM 5(6)-carboxyfluorescein (CF), and homogenized for 5 min at 45 °C to form liposomes (final concentration: 8 mM). The resulting multilamellar vesicle dispersion underwent 10 freeze/thawing cycles and was passed 21 times through a mini extruder (0.4 µm polycarbonate treck-etch membrane; Avanti Polar Lipids, Inc., Alabaster, AL, USA). External CF was removed by size exclusion chromatography (PD10 column, GE Healthcare, Chicago, IL, USA). Peptides were added to the LUVs and the CF release was monitored by measuring the increased fluorescence intensity on a plate reader (Biotek, Winooski, VT, USA). […]
(§2) Our results thus far inspired us to investigate how the novel CB-conjugates would perform in a lipid environment. […] Both lipid systems were additionally loaded with CF in order to monitor membrane leakage via fluorescence dye outflow.

[5] = CF-leakage assay, zwitterionic LUVs; details: 1 µM peptide, 25 °C, 90 min; fluorescence, normalized to Triton x-100; duplicate, n = 2
Procedure: as §1, §2

human red blood cells = assay: Hemolysis assay; type: cell-based; details: human RBCs 5% (v/v in PBS), 37 °C, up to 25 µM peptide, absorption at 560 nm, normalized to Triton-x-100 control, triplicate, n = 2
Procedure: Human red blood cells were washed five times with PBS (4 °C, 3000× g, 5 min) and diluted to 5% (v/v in PBS). In total, 100 µL of this solution were transferred into a fresh 96-well plate. In total, 50 µL of peptide solution were added and gently resuspended. Red blood cells were incubated for either 1 or 24 h at 37 °C and 5% CO2, respectively. In total, 50 µL of 10% Triton-x-100 were added 10 min prior to the end of the incubation time and served as a positive control. After incubation, cells were centrifuged (r.t., 2500× g, 3 min). The supernatant was carefully transferred into a fresh 96-well plate and the absorption at 560 nm was measured on a Tecan infinite M200 plate reader (Tecan Group AG, Männedorf, Switzerland). The measured absorption referred to the hemoglobin concentration.
Next, we incubated human red blood cells (RBCs) with different concentrations of CB-sC18 conjugates at 37 °C for 1 or 24 h, respectively. Since their cell membranes are mainly composed of neutral lipids, RBCs serve as an excellent biological model for the lytic activity of a peptide. […] For sC18, this agreed with the detected low activity when in contact with zwitterionic LUVs. […] The same activity profile was observed when incubating peptide conjugates with RBCs for only one hour (Figure S30), whereas the effects started at concentrations higher than 5 µM. […]

HeLa cells [6] = assay: Cell viability assay (resazurin); type: cell-based; details: 37 °C, serum-free medium, 125 nM–100 µM, relative to untreated cells
Procedure: In total, 17.000 HeLa cells per well were seeded onto 96-well plates (Sarstedt, Nümbrecht, Germany). After confluency of 80–90% was reached, the growth medium was removed, and cells were incubated with 100 µL of peptide solution of different concentrations (125 nM–100 μM in serum-free medium) for 24 h at 37 °C. For a positive control, cells were treated with 70% EtOH for 10 min. Cells were washed with serum-free medium and incubated with 10% (v/v) resazurin (Sigma-Aldrich, Merck group: Darmstadt, Germany) in serum-free medium for 1.5 h at 37 °C. Cell viability was determined by measurement of the resorufin product at 595 nm (λex = 550 nm) on a Tecan infinite M200 plate reader (Tecan Group AG, Männedorf, Switzerland). Viability was calculated from the fluorescence values of treated cells in relation to untreated cells.

## CB-KKKK-GLRKRLRKFRNKIKEK [CB5-sC18, sC18 conjugate bearing five meta-carborane clusters]
[1]
  CMC: 44.37 ± 1.16 µM
HeLa cells [2]
  Cellular uptake into HeLa cells, 30 min: decreased again
[3]
  % of alpha helix, 50% TFE: 50.15%
  % of alpha helix, Phosphate Buffer: 21.09%
  R-value, Phosphate Buffer: 0.87
  R-value, 50% TFE: 0.92
[4]
  CF release (leakage) from negatively charged LUVs: increased outflow of CF
[5]
  CF release (leakage) from zwitterionic LUVs: same leakage profile as CB1-sC18

## CB‐KKKK‐LLIILRRRIRKQAHAHSK [CB5-pVEC, pVEC conjugate bearing five meta-carborane clusters]
[3]
  % of alpha helix, 50% TFE: 45.48%
  % of alpha helix, Phosphate Buffer: 22.96%
  R-value, Phosphate Buffer: 0.79
  R-value, 50% TFE: 0.79

## KK-GLRKRLRKFRNKIKEK [CB2-sC18, sC18 conjugate bearing two meta-carborane clusters]
[3]
  % of alpha helix, 50% TFE: 60.49%
  % of alpha helix, Phosphate Buffer: 5.45%
  R-value, 50% TFE: 0.89
Human red blood cells
  Hemolytic activity towards RBCs, 24 h: able to lyse RBCs

## KKK-GLRKRLRKFRNKIKEK [CB3-sC18, sC18 conjugate bearing three meta-carborane clusters]
[1]
  CMC: 44.46 ± 1.14 µM
[3]
  % of alpha helix, 50% TFE: 56.10%
  % of alpha helix, Phosphate Buffer: 16.68%
  R-value, Phosphate Buffer: 0.56
  R-value, 50% TFE: 0.88

## KKKK‐LLIILRRRIRKQAHAHSK [CB4-pVEC, pVEC conjugate bearing four meta-carborane clusters]
[3]
  % of alpha helix, 50% TFE: 59.84%
  % of alpha helix, Phosphate Buffer: 22.59%
  R-value, Phosphate Buffer: 0.92
  R-value, 50% TFE: 0.84

## KKK‐LLIILRRRIRKQAHAHSK [CB3-pVEC, pVEC conjugate bearing three meta-carborane clusters]
[3]
  % of alpha helix, 50% TFE: 65.76%
  % of alpha helix, Phosphate Buffer: 16.98%
  R-value, Phosphate Buffer: 0.99
  R-value, 50% TFE: 0.82

## KK‐LLIILRRRIRKQAHAHSK [CB2-pVEC, pVEC conjugate bearing two meta-carborane clusters]
[3]
  % of alpha helix, 50% TFE: 51.36%
  % of alpha helix, Phosphate Buffer: 20.41%
  R-value, Phosphate Buffer: 0.84
  R-value, 50% TFE: 0.82

## K‐LLIILRRRIRKQAHAHSK [CB1-pVEC, pVEC conjugate bearing one meta-carborane cluster]
[3]
  % of alpha helix, 50% TFE: 44.28%
  % of alpha helix, Phosphate Buffer: 17.72%
  R-value, Phosphate Buffer: 0.57
  R-value, 50% TFE: 0.82

## LLIILRRRIRKQAHAHSK [pVEC, VE-cadherin-derived cell-penetrating peptide, reference compound]
[3]
  % of alpha helix, 50% TFE: 48.60%
  % of alpha helix, Phosphate Buffer: 12.18%
  R-value, Phosphate Buffer: 0.37
  R-value, 50% TFE: 0.73

## meta-carborane-1-carboxylic acid [reference compound]
HeLa cells [6]
  Cytotoxicity towards HeLa cells, 24 h: nearly no cytotoxicity

— article PMC8709211, “Improving Membrane Activity and Cargo Delivery Efficacy of a Cell-Penetrating Peptide by Loading with Carboranes” (Pharmaceutics, 2021)
